Assay results: article PMC9592857, “Voltage dependence of the cannabinoid CB1 receptor” (Frontiers in Pharmacology, 2022)
Like-named read-outs stand apart in the source and are kept apart here.

Assays:
Type in all cases: cell-based
GIRK channel = molecular target: T1, GIRK channel (Homo sapiens, UniProt P48051+P48549); experiment: Receptor-independent effect on GIRK channels in oocytes expressing the GIRK channel but not the CB1 receptor; conditions: for effect of application on GIRK currents: 10 µM, oocyte expressing the GIRK channel only; for direct effect on the GIRK channel: oocytes without CB1 receptor, any membrane potential
T1 construct: expressed in transfected cells; host or cells: Xenopus laevis oocytes injected with cRNA
T1 sequence (P48549 1-501): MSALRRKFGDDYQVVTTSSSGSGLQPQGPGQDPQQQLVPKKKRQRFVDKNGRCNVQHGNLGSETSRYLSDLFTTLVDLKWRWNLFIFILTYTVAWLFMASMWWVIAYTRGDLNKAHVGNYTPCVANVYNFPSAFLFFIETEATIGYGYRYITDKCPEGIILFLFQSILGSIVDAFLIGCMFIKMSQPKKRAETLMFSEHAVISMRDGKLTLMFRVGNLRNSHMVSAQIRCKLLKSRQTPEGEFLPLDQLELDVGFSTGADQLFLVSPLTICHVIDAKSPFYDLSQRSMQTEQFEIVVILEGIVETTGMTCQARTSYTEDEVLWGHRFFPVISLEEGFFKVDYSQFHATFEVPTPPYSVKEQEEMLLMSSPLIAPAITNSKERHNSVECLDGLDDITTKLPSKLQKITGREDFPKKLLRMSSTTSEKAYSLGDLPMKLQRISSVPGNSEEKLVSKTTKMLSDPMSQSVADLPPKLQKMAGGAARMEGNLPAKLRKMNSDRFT
T1 sequence (P48051 1-423): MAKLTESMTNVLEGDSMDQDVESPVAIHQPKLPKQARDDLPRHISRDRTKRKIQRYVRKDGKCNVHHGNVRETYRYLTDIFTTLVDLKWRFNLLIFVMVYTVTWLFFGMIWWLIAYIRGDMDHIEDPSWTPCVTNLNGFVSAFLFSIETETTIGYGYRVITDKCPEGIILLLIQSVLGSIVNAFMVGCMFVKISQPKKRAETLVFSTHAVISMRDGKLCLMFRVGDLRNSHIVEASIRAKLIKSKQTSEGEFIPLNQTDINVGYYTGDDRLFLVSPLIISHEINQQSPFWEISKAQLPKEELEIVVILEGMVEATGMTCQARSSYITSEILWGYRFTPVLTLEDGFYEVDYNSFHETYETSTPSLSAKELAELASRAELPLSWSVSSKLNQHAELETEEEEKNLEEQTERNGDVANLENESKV
Experimental: Figure S1. […] (A) A representative recording from an oocyte expressing the GIRK channel. […] (B) Current -Voltage (I-V) curve of IK before (black) and after (red) the application of 2-AG. The oocytes were voltage clamped to -80 mV and the currents after depolarizing pulses to various holding potentials from –80 mV to +40 mV at 10 mV increments were measured. Data is mean ± SEM from 7 oocytes. The difference between the two conditions is not significant (paired t-test, p>0.11 for all voltages).
(§1) Figure S2. Effect of AEA on GIRK channels. (A) A representative recording from an oocyte expressing the GIRK channel. […] (B) Current-voltage I-V curve of IK before (black) and after (red) the application of AEA. The oocytes were voltage clamped to -80 mV and the currents after depolarizing pulses to various holding potentials from –80 mV to +40 mV at 10 mV increments were measured. Data is mean ± SEM from 7 oocytes. The difference between the two conditions is not significant (paired t-test, p>0.13 for all voltages).
as §1, with “S3.” for “S2.”, “THC” for “AEA”, “(B)” for “(B) Current-voltage”, “THC.” for “AEA.”, “5” for “7”, “p>0.23” for “p>0.13”

CB1 receptor [1] = molecular target: T2, CB1 receptor (Homo sapiens, UniProt P21554)
T2 construct: expressed in transfected cells; host or cells: Xenopus laevis oocytes injected with cRNA; plasmid was a gift of Ken Mackie

CB1 receptor [2] = molecular target: T2, CB1 receptor; conditions: for mean time constant of deactivation: same oocyte at both potentials, 10 oocytes

T2 sequence (P21554 whole entry): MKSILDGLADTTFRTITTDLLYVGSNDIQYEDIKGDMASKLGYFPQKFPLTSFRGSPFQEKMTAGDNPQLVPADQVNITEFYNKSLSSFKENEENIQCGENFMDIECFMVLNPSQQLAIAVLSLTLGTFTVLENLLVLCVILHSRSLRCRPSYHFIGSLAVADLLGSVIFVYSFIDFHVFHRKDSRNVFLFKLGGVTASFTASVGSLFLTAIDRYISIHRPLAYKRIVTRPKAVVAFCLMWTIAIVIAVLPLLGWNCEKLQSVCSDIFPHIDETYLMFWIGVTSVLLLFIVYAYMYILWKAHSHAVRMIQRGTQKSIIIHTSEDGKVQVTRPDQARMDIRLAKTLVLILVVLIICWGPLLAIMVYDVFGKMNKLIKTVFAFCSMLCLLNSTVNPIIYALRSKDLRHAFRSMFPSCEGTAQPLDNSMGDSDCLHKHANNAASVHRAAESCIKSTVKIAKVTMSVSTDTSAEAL

| Molecule | effect of application on GIRK currents (GIRK channel) | direct effect on the GIRK channel (GIRK channel) | enhancement of potency toward the CB1 receptor by depolarization (CB1 receptor [1]; +40 mV versus -80 mV) | V50 (the voltage that shows half-maximal effect), Boltzmann fit (CB1 receptor [1]; relative activation by 100 nM agonist, -80 mV to +40 mV) [mV] | mean time constant of deactivation (CB1 receptor [2]; +40 mV) | dissociation time constant from the receptor (decay of GIRK current after washout) (CB1 receptor [2]; -80 mV, both agonists in the same oocytes, n = 20, mean±SD) [s] | mean time constant of deactivation (CB1 receptor [2]; -80 mV) |
| --- | --- | --- | --- | --- | --- | --- | --- |
| CCCCC/C=C\C/C=C\C/C=C\C/C=C\CCCC(=O)NCCO [AEA, anandamide] | did not evoke GIRK currents or inhibited basal GIRK currents | do not have any direct effect |  |  |  |  |  |
| (-)-Δ9-Tetrahydrocannabinol [THC] | did not evoke GIRK currents or inhibited basal GIRK currents | do not have any direct effect |  |  |  |  |  |
| CCCCC/C=C\C/C=C\C/C=C\C/C=C\CCCC(=O)OC(CO)CO [2-AG, 2-Arachidonoylglycerol] | did not evoke GIRK currents or inhibited basal GIRK currents | do not have any direct effect | about 4 fold | −45 | 42.6 ± 19.8 | 30.4 ± 11.7 | 25.4 ± 14.9 |
